This assay has as its target T1, human leukocyte 5-lipoxygenase (Homo sapiens, UniProt P09917).
T1 construct: endogenous in cells; host or cells: leukocytes from fresh human blood
T1 sequence (P09917 1-674): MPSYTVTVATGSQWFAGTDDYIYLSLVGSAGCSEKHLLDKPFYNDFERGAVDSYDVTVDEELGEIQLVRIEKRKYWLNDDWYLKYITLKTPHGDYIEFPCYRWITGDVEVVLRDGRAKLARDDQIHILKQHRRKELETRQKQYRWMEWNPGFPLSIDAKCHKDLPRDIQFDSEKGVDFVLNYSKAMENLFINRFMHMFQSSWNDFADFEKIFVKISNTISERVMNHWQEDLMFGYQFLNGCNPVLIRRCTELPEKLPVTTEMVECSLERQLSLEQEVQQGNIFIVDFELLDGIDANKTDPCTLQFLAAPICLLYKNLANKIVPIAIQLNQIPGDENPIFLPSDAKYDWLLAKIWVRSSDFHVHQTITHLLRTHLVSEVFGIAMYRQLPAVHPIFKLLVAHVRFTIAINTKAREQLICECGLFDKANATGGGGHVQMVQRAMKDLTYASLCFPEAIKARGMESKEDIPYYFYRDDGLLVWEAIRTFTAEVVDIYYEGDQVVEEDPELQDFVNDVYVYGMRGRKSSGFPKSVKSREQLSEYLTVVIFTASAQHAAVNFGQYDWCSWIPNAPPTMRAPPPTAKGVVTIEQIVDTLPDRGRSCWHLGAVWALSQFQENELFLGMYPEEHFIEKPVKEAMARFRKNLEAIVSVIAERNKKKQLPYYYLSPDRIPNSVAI
Nature of the assay: 5-Lipoxygenase assay in human leukocytes, formation of 5-HETE (5LOA; 5LOA1 or 5LOA2 not specified). It is filed as cell-based. From the text: To Evaluate the Effect of Each Compounds as a 5-Lipoxygenase Inhibitor in Comparison to Standard Reference Agents in Human Leukocytes (5LOAl)
The purpose of this assay is to evaluate the activity of each compound as an inhibitor of human leukocyte 5-lipoxygenase.
Arachidonic acid and calcium ionophore A23l87 are obtained from Sigma (St. Louis, Mo.). Silica gel plates, GF are obtained from Analtech (Newark, Del.). Arachidonic acid, (1-^14 C) and 5-HETE (^3 H), 5 (S)-hydroxy-6-trans, 8,11,14-cis eicosatetraenoic acid, are obtained from New England Nuclear (Boston, Mass.). Six percent Dextran-70 in 0.9% NaCl is obtained from Cutter Labs (Berkeley, Calif.).
Fresh blood from normal adult men who had not received any drugs for at least the previous five days is obtained by the Community Research Clinic (WL/PD) using venipuncture and collected into heparinized vacuotainer tubes. To every 100 ml of pooled blood is added 25 ml of dextran solution (6% dextran -70 in 0.9% sodium chloride containing 3% dextrose) and this is mixed gently in a plastic cylinder. The mixture is left to stand at room temperature for at least 90 minutes. The upper layer which is rich in leukocytes and platelets is then carefully decanted into 50 ml plastic tubes and centrifuged at about 100×g for eight minutes in an IEC centrifuge and rotor number 269 (about 600 rpm). The supernatant fluid is discarded and the pellet is resuspended in 10 ml of 0.87% ammonium chloride for exactly two minutes. This procedure is to lyse completely contaminating red blood cells. Leukocytes are then separated by centrifugation for ten minutes. The pellet is washed three times by suspension in 20 ml PBS (sodium chloride, 7.1 g; Na2 HPO4, 1.15 g; KH2 PO4, 0.2 g, and KCl, 0.2 g/L) and centrifuged as before. The final pellet is suspended in PBS containing 0.87 mM CaCl2. Viability of the cells is then checked using trypan blue exclusion method and is found to be over 90%.
Leukocyte cells in suspension (0.98 ml) are incubated with or without test compounds for five minutes at 37° C. in a shaking water bath. At this time a 17 μl mixture is prepared per 1 ml of cell suspension: 100 mM arachidonic acid, 1 μl, 0.05 μCi ^14 C-arachidonic acid in 5 .rho.l; 1 mM calcium ionophore A23187, 10 μl (1). This mixture is added and the incubation continued for five minutes. The reaction is stopped by adding four volumes of absolute ethanol and the mixture is kept in ice for 30 minutes. The floculated precipitate is separated by centrifugation at about 37,000×g for 20 minutes (Beckman Instruments rotor number 40). The alcohol extract is taken to dryness under a stream of nitrogen and the residue is dissolved in 100-200 μl absolute ethanol. At the time any turbidity is removed by centrifugation. An aliquot (25-50 μl) is applied onto 20×20 cm silica gel TLC plate and developed using the following solvent system: diethyl ether, petroleum ether (2040° C.), acetic acid (50:50: 1 v/v). Zones of 1 cm apart are scraped from the TLC plate and transferred to mini-vials. Methanol (0.5 ml) is added to dissolve the radioactivity adsorbed to the silica gel and scintillation fluid (H.P., Beckman), 5 ml is then added and vials are counted in a liquid scintillation counter. A sample of ^3 H-5-HETE is applied and used for the identification of the formed 5-HETE.
Total radioactivity in the test as well as the control samples are normalized and the amount of 5-HETE present is calculated accordingly.
IC50 values are defined as the concentrations of test agents which caused a 50% inhibition of the formation of 5-HETE as compared to control and are determined by inspection of the concentration-response curves.
The formation of 5-HETE in human leukocytes is considered a measure of 5-lipoxygenase activity. The protocol is described in the following.
Fresh heparinized or EDTA treated human blood is mixed with 6% dextran-3% dextrose in isotonic saline in the ratio 0.25 ml dextran solution per 1.0 ml blood. […]

As for `O=C(Nc1ccc(CCc2ccc(Cl)c(Cl)c2)cc1)C(=O)c1sc2ccccc2c1O` [Example 136, Benzo[b]thiophene-2-acetamide, N-[4-[2-(3,4-dichlorophenyl)ethyl]phenyl]-3-hydroxy-α-oxo], the “5LOA, % Inhibition” value (2.00 E -5 M) is recorded as “+2.2%” and the “5LOA, % Inhibition” value (5.00 E -6 M) is “+1.4%”.
`COc1c(C(=O)Nc2ccc(CCc3ccc(Cl)c(Cl)c3)cc2)sc2ccccc12` [Example 147, Benzo[b]thiophene-2-carboxamide, N-[4-[2-(3,4-dichlorophenyl)ethyl]phenyl]-3-methoxy]: the “5LOA, % Inhibition” value is recorded as 13.8% (2.00 E -5 M) and 5.5% (5.00 E -6 M).

For the origin of these results see US4921871A, “Enolamides, pharmaceutical compositions and methods of use thereof for treating inflammation” (Warner-Lambert Company, priority 1987, dated 1990).
